Laboratory results: patent publication US7901724B2, “Fermented tea obtained by tea-rolling processing of tea material leaves and loquat leaves, and composition having extract contained in fermented tea as active component” (Nagasaki Prefectural Government, priority 2004, dated 2011)

System: normal rat
Experiment: Maltose load in normal rat, single administration, blood glucose levels
Assay type: in vivo
Conditions: maltose 2 g/kg load
Experimental: Maltose was administered to a normal rat at a dosage of 2 g per kg of the body weight. Subsequently, an extract obtained by extracting the fermented tea obtained by means of tea-rolling processing with hot water was administered to the rat at a dosage of 20 mg per kg of the body weight, or a product was administered to the rat at a dosage of 20 mg per kg of the body weight, in which a plant in Sri Lanka, one of the materials having high activities with the highest level among the materials reported heretofore (J. Agri. Food. Chem. 2004) was extracted with methanol, then concentrated, and then freeze-dried, followed by dissolving the freeze-dried product in water. 30 minutes, 60 minutes, and 120 minutes after the administration, the blood glucose levels were measured.
As an indication of 50% reduction of the elevation of blood glucose levels, EC50 is employed.
Maltose was administrated to a normal rat at a dosage of 2 g per kg of the body weight. Subsequently, an extract obtained by extracting the fermented tea obtained by means of tea-rolling processing with hot water was administered at a dosage of 10 mg per kg of the body weight or 20 mg per kg of the body weight. A decreasing rate of the total blood glucose level area up to 120 minutes after carrying out carbohydrate load (AUCO-120) is shown in Table 6.

C[C@H]1O[C@H](O[C@H]2[C@H](O)[C@@H](O)[C@@H](O[C@H]3[C@H](O)[C@@H](O)C(O)O[C@@H]3CO)O[C@@H]2CO)[C@H](O)[C@@H](O)[C@@H]1N[C@H]1C=C(CO)[C@@H](O)[C@H](O)[C@H]1O (stereo partly shown) [Acarbose, acarbose]
EC50 (50% reduction of the elevation of blood glucose levels): 3.1 mg/kg
